Assays:
IKKα = molecular target: T1, IKKα (Homo sapiens, UniProt O15111); assay: direct biotin labelling of purified protein, streptavidin pull-down and blot; type: binding
T1 construct: gene CHUK; purified Flag-IKKα
T1 sequence (O15111 1-745): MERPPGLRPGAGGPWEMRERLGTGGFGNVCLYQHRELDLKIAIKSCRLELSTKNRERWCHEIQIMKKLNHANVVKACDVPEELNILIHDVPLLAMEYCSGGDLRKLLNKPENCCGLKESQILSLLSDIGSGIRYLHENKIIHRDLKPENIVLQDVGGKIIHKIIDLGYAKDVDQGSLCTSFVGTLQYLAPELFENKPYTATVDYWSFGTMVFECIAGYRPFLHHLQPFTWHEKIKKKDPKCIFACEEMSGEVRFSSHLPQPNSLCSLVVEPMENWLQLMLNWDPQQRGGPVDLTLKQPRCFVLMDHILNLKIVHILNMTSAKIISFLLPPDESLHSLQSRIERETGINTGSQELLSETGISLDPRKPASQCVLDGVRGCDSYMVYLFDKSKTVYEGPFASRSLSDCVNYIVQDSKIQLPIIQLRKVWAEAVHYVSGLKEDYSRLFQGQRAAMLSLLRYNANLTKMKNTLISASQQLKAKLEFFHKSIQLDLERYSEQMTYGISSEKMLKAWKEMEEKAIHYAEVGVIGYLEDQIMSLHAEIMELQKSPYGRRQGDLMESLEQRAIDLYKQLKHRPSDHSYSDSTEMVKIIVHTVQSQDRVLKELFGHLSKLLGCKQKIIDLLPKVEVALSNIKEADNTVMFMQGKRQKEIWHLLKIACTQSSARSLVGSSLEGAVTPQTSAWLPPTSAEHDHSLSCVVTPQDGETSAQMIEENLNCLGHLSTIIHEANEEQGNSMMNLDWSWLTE

IKKβ = molecular target: T2, IKKβ (Homo sapiens, UniProt O14920); assay: direct biotin labelling of purified protein, streptavidin pull-down and blot, competed by ainsliadimer A; time-dependent binding
T2 construct: gene IKBKB; purified Flag-IKKβ
T2 sequence (O14920 1-756): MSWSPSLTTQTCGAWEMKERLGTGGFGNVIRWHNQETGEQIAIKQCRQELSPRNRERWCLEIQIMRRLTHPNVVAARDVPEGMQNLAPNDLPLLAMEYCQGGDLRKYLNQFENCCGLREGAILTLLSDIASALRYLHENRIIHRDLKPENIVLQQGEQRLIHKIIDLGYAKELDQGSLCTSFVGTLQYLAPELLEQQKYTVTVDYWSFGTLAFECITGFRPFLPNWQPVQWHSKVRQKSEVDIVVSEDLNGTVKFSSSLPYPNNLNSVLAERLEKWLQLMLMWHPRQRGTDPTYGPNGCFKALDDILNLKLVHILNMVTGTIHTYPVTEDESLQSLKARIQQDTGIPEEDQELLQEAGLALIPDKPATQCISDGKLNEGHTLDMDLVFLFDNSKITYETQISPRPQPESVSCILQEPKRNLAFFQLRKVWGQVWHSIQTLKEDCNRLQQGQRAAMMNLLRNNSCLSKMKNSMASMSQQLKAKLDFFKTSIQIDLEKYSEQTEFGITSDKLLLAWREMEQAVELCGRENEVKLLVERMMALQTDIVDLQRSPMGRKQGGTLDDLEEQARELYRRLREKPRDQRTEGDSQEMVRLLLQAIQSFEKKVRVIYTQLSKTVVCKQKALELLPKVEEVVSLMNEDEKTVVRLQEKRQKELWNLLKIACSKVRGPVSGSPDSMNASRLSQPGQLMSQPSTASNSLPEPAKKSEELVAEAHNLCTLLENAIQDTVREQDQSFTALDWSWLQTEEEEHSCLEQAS

## C=C1C(=O)O[C@@H]2[C@@H]3[C@@H](C[C@H](OC(=O)CCOCCOCCOCCNC(=O)CCCC[C@@H]4SC[C@@H]5NC(=O)N[C@@H]54)[C@]34CC[C@]3(O)[C@@H]5[C@H]6OC(=O)C(=C)[C@@H]6CCC(=C)[C@@H]5C[C@]43O)C(=C)CC[C@@H]12 [Probe]
IKKα
  direct biotin labelling of purified protein, streptavidin pull-down and blot: suggesting that there is a strong interaction between Probe and recombinant IKKα
IKKβ
  direct biotin labelling of purified protein, streptavidin pull-down and blot, co: we also observed a similar interaction pattern between Probe and recombinant IKKβ (Fig. 4d)

Reference: publication PMC4389228, “Ainsliadimer A selectively inhibits IKKα/β by covalently binding a conserved cysteine” (Nature Communications, 2015)
